Reference: US11739098B2 (BRISTOL-MYERS SQUIBB COMPANY, priority 2017, dated 2023)

Legend:
Format in all cases: cell-based
[1] = biological target: T1, human TLR7 (Homo sapiens, UniProt Q9NYK1); assay: TLR7 inhibition reporter assay (HEK-Blue cells, SEAP reporter, gardiquimod stimulation); conditions: HEK-Blue cells overexpressing human TLR7, SEAP reporter, gardiquimod 7.5 μM
T1 construct: host or cells: HEK-Blue cells (HEK293-derived reporter line)
T1 sequence (Q9NYK1 27-1049): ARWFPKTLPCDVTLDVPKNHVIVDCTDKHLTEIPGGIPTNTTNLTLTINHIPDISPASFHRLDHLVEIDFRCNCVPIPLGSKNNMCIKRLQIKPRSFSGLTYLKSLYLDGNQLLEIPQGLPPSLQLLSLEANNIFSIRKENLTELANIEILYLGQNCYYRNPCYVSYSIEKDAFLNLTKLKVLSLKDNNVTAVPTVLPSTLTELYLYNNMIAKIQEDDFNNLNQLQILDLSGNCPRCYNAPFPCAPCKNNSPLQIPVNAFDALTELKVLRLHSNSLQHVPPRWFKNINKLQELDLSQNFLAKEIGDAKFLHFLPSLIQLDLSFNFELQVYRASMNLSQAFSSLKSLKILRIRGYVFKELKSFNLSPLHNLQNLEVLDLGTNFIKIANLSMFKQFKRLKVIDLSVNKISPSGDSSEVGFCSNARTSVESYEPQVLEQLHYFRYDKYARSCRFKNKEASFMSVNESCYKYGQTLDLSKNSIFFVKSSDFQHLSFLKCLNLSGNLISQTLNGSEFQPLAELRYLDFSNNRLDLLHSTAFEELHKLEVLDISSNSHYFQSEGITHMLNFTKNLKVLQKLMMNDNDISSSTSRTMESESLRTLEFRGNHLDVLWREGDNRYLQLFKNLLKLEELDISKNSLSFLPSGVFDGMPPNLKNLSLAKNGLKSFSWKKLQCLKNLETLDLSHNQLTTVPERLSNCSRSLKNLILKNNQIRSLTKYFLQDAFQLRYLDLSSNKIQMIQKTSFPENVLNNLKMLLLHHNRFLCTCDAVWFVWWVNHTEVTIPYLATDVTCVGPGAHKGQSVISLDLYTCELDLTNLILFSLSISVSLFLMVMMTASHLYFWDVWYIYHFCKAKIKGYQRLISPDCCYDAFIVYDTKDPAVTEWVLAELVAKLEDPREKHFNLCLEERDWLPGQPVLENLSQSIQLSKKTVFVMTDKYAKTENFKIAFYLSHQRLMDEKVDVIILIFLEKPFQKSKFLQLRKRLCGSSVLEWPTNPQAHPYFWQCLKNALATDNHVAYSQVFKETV
How it was run: (§1)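 HEK-Blue cells overexpressing human TLR7, TLR8 or TLR9 (NF-κB/AP-1-driven SEAP) pre-treated 30 min at room temperature with compound (0.05 nM–50 μM), then stimulated with gardiquimod 7.5 μM (TLR7), R848 15.9 μM (TLR8) or ODN2006 5 nM (TLR9). SEAP read colorimetrically after 22 h at 37 °C; % inhibition calculated.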

[2] = biological target: T2, human TLR8 (Homo sapiens, UniProt Q9NR97); assay: TLR8 inhibition reporter assay (HEK-Blue cells, SEAP reporter, R848 stimulation); conditions: HEK-Blue cells overexpressing human TLR8, SEAP reporter, R848 15.9 μM
T2 construct: host or cells: HEK-Blue cells (HEK293-derived reporter line)
T2 sequence (Q9NR97 27-1041): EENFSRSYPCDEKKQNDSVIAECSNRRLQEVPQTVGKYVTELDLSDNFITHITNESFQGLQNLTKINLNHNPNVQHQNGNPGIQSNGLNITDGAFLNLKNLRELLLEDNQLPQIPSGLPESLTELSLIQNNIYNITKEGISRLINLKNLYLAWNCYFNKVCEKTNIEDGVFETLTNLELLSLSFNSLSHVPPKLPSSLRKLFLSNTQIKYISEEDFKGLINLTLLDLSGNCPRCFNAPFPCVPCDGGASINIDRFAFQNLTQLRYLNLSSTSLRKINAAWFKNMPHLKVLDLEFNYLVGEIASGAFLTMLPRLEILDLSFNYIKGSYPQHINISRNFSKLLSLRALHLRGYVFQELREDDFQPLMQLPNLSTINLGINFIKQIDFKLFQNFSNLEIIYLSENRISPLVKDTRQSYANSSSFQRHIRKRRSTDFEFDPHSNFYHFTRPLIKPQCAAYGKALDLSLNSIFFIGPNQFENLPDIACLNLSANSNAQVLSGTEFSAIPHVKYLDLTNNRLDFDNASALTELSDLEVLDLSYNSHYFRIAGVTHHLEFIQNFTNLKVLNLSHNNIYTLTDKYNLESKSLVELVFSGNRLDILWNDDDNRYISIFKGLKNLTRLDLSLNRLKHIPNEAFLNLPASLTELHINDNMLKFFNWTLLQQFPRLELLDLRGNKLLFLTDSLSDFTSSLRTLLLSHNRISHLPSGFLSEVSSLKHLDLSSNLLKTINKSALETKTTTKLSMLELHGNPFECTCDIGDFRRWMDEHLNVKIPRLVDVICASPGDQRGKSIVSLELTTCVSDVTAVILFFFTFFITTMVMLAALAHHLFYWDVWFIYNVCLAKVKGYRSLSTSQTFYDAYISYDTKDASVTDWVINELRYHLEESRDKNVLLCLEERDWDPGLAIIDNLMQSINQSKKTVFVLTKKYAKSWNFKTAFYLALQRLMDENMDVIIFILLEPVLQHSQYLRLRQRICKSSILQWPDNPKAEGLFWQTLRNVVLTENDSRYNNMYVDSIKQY
How it was run: as §1

[3] = biological target: T3, human TLR9 (Homo sapiens, UniProt Q9NR96); assay: TLR9 inhibition reporter assay (HEK-Blue cells, SEAP reporter, ODN2006 stimulation); conditions: HEK-Blue cells overexpressing human TLR9, SEAP reporter, ODN2006 5 nM
T3 construct: host or cells: HEK-Blue cells (HEK293-derived reporter line)
T3 sequence (Q9NR96 26-1032): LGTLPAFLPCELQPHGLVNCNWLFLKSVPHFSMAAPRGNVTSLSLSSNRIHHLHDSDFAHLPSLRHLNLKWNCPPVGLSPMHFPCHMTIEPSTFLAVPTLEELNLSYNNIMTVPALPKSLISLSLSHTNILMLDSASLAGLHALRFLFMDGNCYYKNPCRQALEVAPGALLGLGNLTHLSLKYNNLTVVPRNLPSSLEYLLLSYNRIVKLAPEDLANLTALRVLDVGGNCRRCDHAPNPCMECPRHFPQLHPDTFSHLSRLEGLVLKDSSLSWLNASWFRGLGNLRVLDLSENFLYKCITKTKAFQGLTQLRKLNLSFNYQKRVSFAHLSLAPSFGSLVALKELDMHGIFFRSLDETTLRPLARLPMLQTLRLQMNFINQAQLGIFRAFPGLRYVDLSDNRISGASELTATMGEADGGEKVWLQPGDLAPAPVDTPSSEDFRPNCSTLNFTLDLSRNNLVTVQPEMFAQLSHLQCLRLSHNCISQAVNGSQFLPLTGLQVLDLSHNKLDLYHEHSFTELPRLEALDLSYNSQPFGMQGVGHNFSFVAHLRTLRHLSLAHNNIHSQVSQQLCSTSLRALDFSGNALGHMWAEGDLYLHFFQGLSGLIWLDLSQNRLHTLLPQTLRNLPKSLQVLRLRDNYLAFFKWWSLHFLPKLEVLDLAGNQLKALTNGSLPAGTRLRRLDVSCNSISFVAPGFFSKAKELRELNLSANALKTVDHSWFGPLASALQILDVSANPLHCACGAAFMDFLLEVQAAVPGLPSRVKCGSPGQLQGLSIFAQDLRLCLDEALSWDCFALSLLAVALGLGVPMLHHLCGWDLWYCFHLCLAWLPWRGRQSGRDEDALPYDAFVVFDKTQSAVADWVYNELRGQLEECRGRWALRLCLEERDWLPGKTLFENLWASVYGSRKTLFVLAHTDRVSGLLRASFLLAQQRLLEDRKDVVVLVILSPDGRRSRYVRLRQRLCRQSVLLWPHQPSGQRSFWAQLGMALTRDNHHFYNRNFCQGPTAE
How it was run: as §1

Compound: CCc1c(-c2ccnc3[nH]ccc23)[nH]c2ccc(C3CCN(C4CCN(C(C)C)CC4)CC3)cc12 [Example 850, 4-(3-ethyl-5-(1′-isopropyl-[1,4′-bipiperidin]-4-yl)-1H-indol-2-yl)-1H-pyrrolo[2,3-b]pyridine]
- IC50 [1]: < 0.1 µM
- IC50 [2]: < 0.1 µM
- IC50 [3]: 0.1 to 1 µM

Compound: Cc1cc(-c2[nH]c3ccc(C4CCN(Cc5ncn(C)n5)CC4)cc3c2C(C)C)cn2nncc12 [Example 881, 6-(3-isopropyl-5-(1-((1-methyl-1H-1,2,4-triazol-3-yl)methyl)piperidin-4-yl)-1H-indol-2-yl)-4-methyl-[1,2,3]triazolo[1,5-a]pyridine]
- IC50 [1]: 1 to 50 µM
- IC50 [2]: 0.1 to 1 µM
- IC50 [3]: 1 to 50 µM

Compound: Cc1cn2cc(-c3[nH]c4ccc(C5CCN(CC(=O)N(C)C)CC5)cc4c3C(C)C)cc(C(F)(F)F)c2n1 [Example 376, 2-(4-(3-isopropyl-2-(2-methyl-8-(trifluoromethyl)imidazo[1,2-a]pyridin-6-yl)-1H-indol-5-yl)piperidin-1-yl)-N,N-dimethylacetamide]
- IC50 [1]: < 0.1 µM
- IC50 [2]: 0.1 to 1 µM
- IC50 [3]: 0.1 to 1 µM

Compound: Cc1c(-c2[nH]c3ccc(C4CCN(C(=O)CN(C)C)CC4)cc3c2C(C)C)c2cccnc2n1C [Example 459, 1-(4-(2-(1,2-dimethyl-1H-pyrrolo[2,3-b]pyridin-3-yl)-3-isopropyl-1H-indol-5-yl)piperidin-1-yl)-2-(dimethylamino)ethan-1-one]
- IC50 [1]: < 0.1 µM
- IC50 [2]: < 0.1 µM
- IC50 [3]: 1 to 50 µM

Compound: CNC(=O)CN1CCC(c2ccc3[nH]c(-c4cc(OC)n5cc(C)nc5c4)c(C(C)C)c3c2)CC1 [Example 335, 2-(4-(3-isopropyl-2-(5-methoxy-2-methylimidazo[1,2-a]pyridin-7-yl)-1H-indol-5-yl)piperidin-1-yl)-N-methylacetamide]
- IC50 [1]: 0.1 to 1 µM
- IC50 [2]: 1 to 50 µM
- IC50 [3]: 1 to 50 µM

Compound: CC(C)c1c(-c2ccc3[nH]nnc3c2)[nH]c2ccc(C3CCNCC3)cc12 [Example 51, 5-(3-isopropyl-5-(piperidin-4-yl)-1H-indol-2-yl)-1H-benzo[d][1,2,3]triazole]
- IC50 [1]: < 0.1 µM
- IC50 [2]: < 0.1 µM
- IC50 [3]: 0.1 to 1 µM

Compound: COC(=O)c1c(-c2ccnc3[nH]ncc23)[nH]c2ccc(C3CCNCC3)cc12 [Example 174, methyl 5-(piperidin-4-yl)-2-(1H-pyrazolo[3,4-b]pyridin-4-yl)-1H-indole-3-carboxylate]
- IC50 [1]: > 50 µM
- IC50 [2]: 1 to 50 µM
- IC50 [3]: 1 to 50 µM

Compound: CC(C)c1c(-c2ccnc3[nH]ncc23)[nH]c2ccc(C3CCN(CCN)CC3)cc12 [Example 655, 2-(4-(3-isopropyl-2-(1H-pyrazolo[3,4-b]pyridin-4-yl)-1H-indol-5-yl)piperidin-1-yl)ethan-1-amine]
- IC50 [1]: < 0.1 µM
- IC50 [2]: < 0.1 µM
- IC50 [3]: 0.1 to 1 µM

Compound: Cc1cn2cc(-c3[nH]c4ccc(C5CCN(C(=O)CC(C)O)CC5)cc4c3C(C)C)c(C)cc2n1 (stereo not drawn) [Example 596, 1-(4-(2-(2,7-dimethylimidazo[1,2-a]pyridin-6-yl)-3-isopropyl-1H-indol-5-yl)piperidin-1-yl)-3-hydroxybutan-1-one]
- IC50 [1]: < 0.1 µM
- IC50 [2]: > 3.13 µM
- IC50 [3]: 1 to 50 µM

Compound: CC(C)c1c(-c2ccc3cnnn3c2)[nH]c2ccc(C3CCNCC3)cc12 [Example 79, 6-(3-isopropyl-5-(piperidin-4-yl)-1H-indol-2-yl)-[1,2,3]triazolo[1,5-a]pyridine]
- IC50 [1]: < 0.1 µM
- IC50 [2]: 0.1 to 1 µM
- IC50 [3]: 0.1 to 1 µM

Compound: CCc1c(-c2ccn3cnnc3c2)[nH]c2ccc(C3CCNCC3)cc12 [Example 204, 7-(3-ethyl-5-(piperidin-4-yl)-1H-indol-2-yl)-[1,2,4]triazolo[4,3-a]pyridine]
- IC50 [1]: 0.1 to 1 µM
- IC50 [2]: 0.1 to 1 µM
- IC50 [3]: 0.1 to 1 µM

Compound: CC(C)c1c(-c2ncnn3cccc23)[nH]c2ccc(C3CCN(CC(=O)N(C)C)CC3)cc12 [Example 424, 2-(4-(3-isopropyl-2-(pyrrolo[2,1-f][1,2,4]triazin-4-yl)-1H-indol-5-yl)piperidin-1-yl)-N,N-dimethylacetamide]
- IC50 [1]: 0.1 to 1 µM
- IC50 [2]: 0.1 to 1 µM
- IC50 [3]: 0.1 to 1 µM

Compound: CNCCN1CCC(c2ccc3[nH]c(-c4ccc5nccn5c4)c(CC(F)F)c3c2)CC1 [Example 681, 2-(4-(3-(2,2-difluoroethyl)-2-(imidazo[1,2-a]pyridin-6-yl)-1H-indol-5-yl)piperidin-1-yl)-N-methylethan-1-amine]
- IC50 [1]: < 0.1 µM
- IC50 [2]: < 0.1 µM
- IC50 [3]: < 0.1 µM

Compound: CC(C)c1c(-c2ccnc3[nH]ncc23)[nH]c2ccc(C3CCN(C4CCCNC4)CC3)cc12 (stereo not drawn) [Example 653, 4-(5-([1,3′-bipiperidin]-4-yl)-3-isopropyl-1H-indol-2-yl)-1H-pyrazolo[3,4-b]pyridine]
- IC50 [1]: < 0.1 µM
- IC50 [2]: < 0.1 µM
- IC50 [3]: 0.1 to 1 µM

Compound: Cc1nc(CN2CCC(c3ccc4[nH]c(-c5ccc6nccn6c5)c(C(C)C)c4c3)CC2)c[nH]1 [Example 938, 6-(3-isopropyl-5-(1-((2-methyl-1H-imidazol-4-yl)methyl)piperidin-4-yl)-1H-indol-2-yl)imidazo[1,2-a]pyridine]
- IC50 [1]: < 0.1 µM
- IC50 [2]: < 0.1 µM
- IC50 [3]: 0.1 to 1 µM
